Measurements reported in patent US11440888B2, “Microbiocidal quinoline carboxamide derivatives” (SYNGENTA CROP PROTECTION AG, priority 2018, dated 2022).

melting point	Compound
106 to 108 °C	O=C(Nc1cnc2c(F)cccc2c1)C(Cl)(Cc1ccccc1)CC(F)(F)F (stereo not drawn) [E.06, 2-benzyl-2-chloro-4,4,4-trifluoro-N-(8-fluoro-3-quinolyl)butanamide]
179 to 181 °C	Cc1c(NC(=O)C(Cl)(Cc2ccccc2)CC(F)(F)F)cnc2c(F)cccc12 (stereo not drawn) [E.01, 2-benzyl-2-chloro-4,4,4-trifluoro-N-(8-fluoro-4-methyl-3-quinolyl)butanamide]
140 to 141 °C	Cc1c(NC(=O)C(Cl)(Cc2ccccc2)CC(C)C)cnc2c(F)cccc12 (stereo not drawn) [E.05, 2-benzyl-2-chloro-N-(8-fluoro-4-methyl-3-quinolyl)-4-methyl-pentanamide]
